Laboratory results as given in patent US10092526B2, “Compositions and methods for treating respiratory injury or disease” (University of Pittsburgh—Of the Commonwealth System of …, priority 2013, dated 2018).
≈ marks a conversion by molar mass, not a printed value. Read-outs that look alike come from different tables or passages of the source.

Key:
[1] = U937 monocyte cytotoxicity, Trypan blue staining; assay type: cell-based; settings: human
Description: (§1) U937 monocytes (0.2 ml at 0.3 x 10^6/ml) were treated with each compound at different concentrations for 16 hours. The cells were then stained with Trypan blue to identify dead cells, and to calculate the LC50. Combined values were used to generate therapeutic indexes (TI)=LC50/IC50.

U937 monocytes = assay: U937 monocyte cytotoxicity, Trypan blue staining; assay type: cell-based
Description: as §1

TNFα cytokine release = assay: LPS-induced TNFα cytokine release in PBMC (ELISA); assay type: cell-based; settings: LPS 50 ng/ml, 16 hours, TNFα release by ELISA
Description: Peripheral blood mononuclear cells (PBMC) (0.2 ml at 0.3×10^6/ml) were treated with lipopolysaccharide (LPS) (50 ng/ml) for 16 hours concurrently with each compound tested at different concentrations. TNFα cytokine release was monitored by ELISA. These concentrations were used to calculate the IC50.

IL1β = assay: IC50IL1β measurements (FIG. 1); assay type: cell-based
IMQ induced psoriasis = IMQ induced psoriasis model (Example 7); assay type: in vivo, BALB/c mice
From the text: An objective scoring system was developed based on the clinical Psoriasis Area and Severity Index (PASI), except that for the mouse model the affected skin area is not taken into account in the overall score. Erythema and scaling were scored independently on a scale from 0 to 4: 0, none; 1, slight; 2, moderate; 3, marked; 4, very marked. The level of erythema was scored using a scoring table with red taints. At day 7, mice were euthanized and spleens were removed for weight measuring.
Female BALB/c mice at 8 to 11 wk of age received a daily topical dose of 62.5 mg of commercially available IMQ cream (5%) (Aldara; 3M Pharmaceuticals) on the shaved back and the right ear for 5 or 6 consecutive days, translating in a daily dose of 3.125 mg of the active compound. Control mice were treated similarly with a control vehicle cream (Vaseline Lanette cream; Fagron). BC-1261 (also referred to herein as compound 014) were either given in drinking water or applied topically daily. To score the severity of inflammation of the back skin, an objective scoring system was developed based on the clinical Psoriasis Area and Severity Index (PASI), except that for the mouse model the affected skin area is not taken into account in the overall score. Erythema and scaling were scored independently on a scale from 0 to 4: 0, none; 1, slight; 2, moderate; 3, marked; 4, very marked. The level of erythema was scored using a scoring table with red taints. At day 7, mice were euthanized and spleens were removed for weight measuring. Skin and ear sample were also collected for H&E staining and epidermis thickness were measured and graphed. n=5-10 per group, *p<0.05.

[2] = tested on: lung transplant rejection; assay: Lung transplant acute rejection model (Example 9); assay type: in vivo, mouse; settings: 5 mg/kg/d i.p. 2 days then drinking water 5 mg/kg/d 5 days
Description: Left lung from BALB/C mouse was surgically removed and transplanted into C57/BL mouse. Mice were given vehicle or BC-1261 (5 mg/kg/d i.p. injection) for 2 days until fully recovered. After that, BC-1261 (also referred to herein as compound 014) was administered through drinking water (5 mg/kg/d) for additional 5 days. Mice were then sacrificed, and the transplanted lungs were removed for H&E staining.

[3] = tested on: Pseudomonas aeruginosa strain PA103; assay: Pseudomonas induced pneumonia, Compound 014 (Example 5); assay type: in vivo, mice; settings: 30 μg or 150 μg IP
Description: Mice were administered either 30 μg or 150 μg of Compound 014 by IP injection, and these mice were then challenged with Pseudomonas aeruginosa strain PA103 (2.5×10^4 CFU/mouse, i.t.) for 18 hours. Mice were monitored on a FlexiVent to measure lung mechanics throughout the procedure. The mice were then sacrificed and lungs were lavaged with saline, harvested, and then homogenized. Lavage cells were processed with cytosin and stained with May-Grunwald and Geimsa, and H&E staining was performed on lung samples. Lavage protein, cell count, and cytokine secretion were measured. (n=4 mice/group, *P<0.05 versus PA103 versus Vehicle)

[4] = tested on: cigarette smoke induced chronic lung inflammation; assay: Smoke induced chronic lung inflammation (Example 6); assay type: in vivo, mice; settings: cigarette smoke 5 weeks, single 100 ug dose i.p., 18 hours
Description: Mice were exposed to cigarette smoke for 5 weeks before a single 100 ug dose of Compound 014 was administered by i.p. injection. The mice were euthanized 18 hours later, and lungs were lavaged with saline, harvested, and then homogenized. Lavage protein, cell counts and cytokine secretion were measured. (n=3 mice/group, *P<0.05 versus control)

[5] = tested on: Dexamethasone-induced muscle atrophy; assay: Dexamethasone induced muscle myopathy model (Example 8); assay type: in vivo, C57BL mice
Description: C57BL mice were given daily i.p. injection of 0.1 ml of vehicle or Dexamethasone (10 mg/kg/d) for 14 days. Some mice were also given BC-1261 (also referred to herein as compound 014) in drinking water with estimated dose of 0.5, 2 and 5 mg/kg/d. Mice were then sacrificed and (tibialis anterior)TA muscle were removed, photographed (A), weighted (C), processed for H&E staining (B) and protein immunoblotting (E).

[6] = U937 monocytes, 16 hours, Trypan blue dead cells, read-out: LC50
[7] = therapeutic index (TI)=LC50/IC50
[8] = PA103, vs vehicle control infected mice, FIG. 9
[9] = Dexamethasone 10 mg/kg/d i.p. 14 days

## c1cc(N2CCCC2)ccc1CNCCCCNCc1ccc(N2CCCC2)cc1 [Compound 006]
[1]; [6]
  CC50 at 16 h: 1 µg/mL (≈ 2.46 µM)
U937 monocytes; [7]
  TI: 1
TNFα cytokine release
  IC50: 1 µg/mL (≈ 2.46 µM)

## c1cc(N2CCCC2)ccc1CNCCNCc1ccc(N2CCCC2)cc1 [Compound 002]
[1]; [6]
  CC50 at 16 h: 7 µg/mL (≈ 18.5 µM)
U937 monocytes; [7]
  TI: 11
TNFα cytokine release
  IC50: 0.6 µg/mL (≈ 1.58 µM)

## c1cc(N2CCOCC2)ccc1CNCCNCc1ccc(N2CCOCC2)cc1 [Compound 001]
[1]; [6]
  CC50 at 16 h: 260 µg/mL (≈ 633 µM)
U937 monocytes; [7]
  TI: 13
TNFα cytokine release
  IC50: 20 µg/mL (≈ 48.7 µM)

## c1csc(-c2ccc(CNCCNCc3ccc(-c4cccs4)cc3)cc2)c1 [Compound 012]
[1]; [6]
  CC50 at 16 h: 1.8 µg/mL (≈ 4.45 µM)
U937 monocytes; [7]
  TI: 1.6
TNFα cytokine release
  IC50: 1.1 µg/mL (≈ 2.72 µM)

## c1cc(N2CCCCC2)ccc1CNCCNCc1ccc(N2CCCCC2)cc1 [Compound 004]
[1]; [6]
  CC50 at 16 h: 27 µg/mL (≈ 66.4 µM)
U937 monocytes; [7]
  TI: 33
IL1β
  IC50: 0.8 µg/mL (≈ 1.97 µM)
TNFα cytokine release
  IC50: 0.8 µg/mL (≈ 1.97 µM)

## Cc1cc(CNCCCCNCc2ccc(N3CCCC3)c(C)c2)ccc1N1CCCC1 [Compound 019]
[1]; [6]
  CC50 at 16 h: 1 µg/mL (≈ 2.3 µM)
U937 monocytes; [7]
  TI: 2
TNFα cytokine release
  IC50: 0.5 µg/mL (≈ 1.15 µM)

## c1cnn(-c2ccc(CNCCNCc3ccc(-n4cccn4)cc3)cc2)c1 [Compound 009]
[1]; [6]
  CC50 at 16 h: 80 µg/mL (≈ 215 µM)
U937 monocytes; [7]
  TI: 57
TNFα cytokine release
  IC50: 1.4 µg/mL (≈ 3.76 µM)

## c1ccc(-c2ccc(CNCCNCc3ccc(-c4ccccn4)cc3)cc2)nc1 [Compound 005]
U937 monocytes; [7]
  TI: 96
IL1β
  IC50: 0.9 µg/mL (≈ 2.28 µM)
TNFα cytokine release
  IC50: 0.9 µg/mL (≈ 2.28 µM)

## c1cnc(-c2ccc(CNCCNCc3ccc(-c4ncccn4)cc3)cc2)nc1 [Compound 014]
IMQ induced psoriasis; IMQ model
  ear thickness: reduces
  gross appearance: reduces
IMQ induced psoriasis; IMQ model, day 7
  spleen weight: reduces
IMQ induced psoriasis; IMQ model, score based on PASI
  psoriasis index: reduces
IMQ induced psoriasis; in drinking water or applied topically daily, BALB/C mice, FIGS. 13-17
  IMQ induced psoriasis: effectively ameliorates
[2]
  neutrophilia infiltrates induced by lung transplant rejection: effectively ameliorates
[2]; vs vehicle group
  transplanted lung H&E staining, infiltrates: completely protected lung
[3]; PA103 2.5×10^4 CFU/mouse i.t., 18 hours
  adverse effects of Pseudomonas on lung mechanics: significantly ameliorated
[3]; [8]
  lavage cell counts: reduced
  lavage protein concentration: reduced
[3]; PA103, vs vehicle control infected mice, FIG. 9C
  lavage pro-inflammatory cytokine levels: reduction
[3]; PA103, vs vehicle control mice, FIG. 11
  cell infiltrates (H&E staining): significantly reduced
[3]; PA103, vs vehicle control smears, FIG. 10
  neutrophils in May-Grunwald and Geimsa smears: significantly fewer neutrophils
[4]; FIG. 12
  lavage cell counts: reduced
  lavage protein concentration: reduced
[4]; FIG. 12C
  lavage pro-inflammatory cytokine levels: reduction
[5]; [9]
  TRAF6 protein in TA muscle (immunoblotting): degrading up-regulated TRAF6 protein
  muscle wasting (cross sectional measurements, TA muscle H&E staining): prevented
[5]; drinking water 0.5, 2 and 5 mg/kg/d, Dexamethasone 10 mg/kg/d i.p. 14 days
  Dexamethasone-induced muscle atrophy: attenuates
[5]; even at 0.5 mg/kg/d in drinking water
  dexamethasone-induced tibialis anterior muscle loss: significantly ameliorates
[1]; [6]
  CC50 at 16 h: 410 µg/mL (≈ 1030 µM)
U937 monocytes; [7]
  TI: 1025
IL1β
  IC50: 0.4 µg/mL (≈ 1.01 µM)
TNFα cytokine release
  IC50: 0.4 µg/mL (≈ 1.01 µM)

## c1coc(-c2ccc(CNCCNCc3ccc(-c4ccco4)cc3)cc2)c1 [Compound 013]
[1]; [6]
  CC50 at 16 h: 5.5 µg/mL (≈ 14.8 µM)
U937 monocytes; [7]
  TI: 2.8
TNFα cytokine release
  IC50: 1.9 µg/mL (≈ 5.1 µM)

## Cc1cc(N2CCCC2)ccc1CNCCCCNCc1ccc(N2CCCC2)cc1C [Compound 020]
[1]; [6]
  CC50 at 16 h: 2 µg/mL (≈ 4.6 µM)
U937 monocytes; [7]
  TI: 10
TNFα cytokine release
  IC50: 0.2 µg/mL (≈ 0.46 µM)

## c1ccc(-c2ccc(CNCCNCc3ccc(-c4ccccc4)cc3)cc2)cc1 [Compound 015]
[1]; [6]
  CC50 at 16 h: 2 µg/mL (≈ 5.09 µM)
U937 monocytes; [7]
  TI: 1
IL1β
  IC50: 2 µg/mL (≈ 5.09 µM)
TNFα cytokine release
  IC50: 2 µg/mL (≈ 5.09 µM)

## Fc1cc(CNCCCCNCc2ccc(N3CCCC3)c(F)c2)ccc1N1CCCC1 [Compound 018]
[1]; [6]
  CC50 at 16 h: 0.4 µg/mL (≈ 0.904 µM)
U937 monocytes; [7]
  TI: 4
TNFα cytokine release
  IC50: 0.1 µg/mL (≈ 0.226 µM)

## c1ccc(CNCCNCc2ccccc2)cc1 [Benzathine, reference compound]
[1]
  CC50 at 16 h: 400 µg/mL (≈ 1660 µM)
U937 monocytes; human, 16 h
  TI: 16
IL1β
  IC50: 25 µg/mL (≈ 104 µM)
TNFα cytokine release
  IC50: 25 µg/mL (≈ 104 µM)

## c1cc(N2CCCC2)ccc1CNCCCCCNCc1ccc(N2CCCC2)cc1 [Compound 017]
[1]; [6]
  CC50 at 16 h: 4 µg/mL (≈ 9.51 µM)
U937 monocytes; [7]
  TI: 20
TNFα cytokine release
  IC50: 0.2 µg/mL (≈ 0.475 µM)

## c1cnc(-c2ccc(CNCCCCNCc3ccc(-c4ncccn4)cc3)cc2)nc1 [Compound 016]
[1]; [6]
  CC50 at 16 h: > 100 µg/mL
U937 monocytes; [7]
  TI: >25
TNFα cytokine release
  IC50: 4 µg/mL (≈ 9.42 µM)

## c1ccc(CNCCNCc2ccc(-c3ccccn3)cc2)nc1 [Compound 008]
[1]; [6]
  CC50 at 16 h: 45 µg/mL (≈ 141 µM)
U937 monocytes; [7]
  TI: 30
TNFα cytokine release
  IC50: 1.5 µg/mL (≈ 4.71 µM)

## c1cc(N2CCCC2)ccc1CNCCCNCc1ccc(N2CCCC2)cc1 [Compound 007]
[1]; [6]
  CC50 at 16 h: 3.2 µg/mL (≈ 8.15 µM)
U937 monocytes; [7]
  TI: 2.9
TNFα cytokine release
  IC50: 1.1 µg/mL (≈ 2.8 µM)

## c1csc(-c2ccc(CNCCNCc3ccc(-c4nccs4)cc3)cc2)n1 [Compound 011]
[1]; [6]
  CC50 at 16 h: 8.5 µg/mL (≈ 20.9 µM)
U937 monocytes; [7]
  TI: 21.3
TNFα cytokine release
  IC50: 0.4 µg/mL (≈ 0.984 µM)

## c1cn(-c2ccc(CNCCNCc3ccc(-n4ccnc4)cc3)cc2)cn1 [Compound 003]
[1]; [6]
  CC50 at 16 h: 130 µg/mL (≈ 349 µM)
U937 monocytes; [7]
  TI: 142
TNFα cytokine release
  IC50: 0.7 µg/mL (≈ 1.88 µM)

## c1ccc(-c2ccc(CNCCCCNCc3ccc(-c4ccccn4)cc3)cc2)nc1 [Compound 010]
[1]; [6]
  CC50 at 16 h: 22 µg/mL (≈ 52.1 µM)
U937 monocytes; [7]
  TI: 14.7
IL1β
  IC50: 1.5 µg/mL (≈ 3.55 µM)
TNFα cytokine release
  IC50: 1.5 µg/mL (≈ 3.55 µM)
